Reference: patent publication US5147878A, “Aminoalkoxyphenyl derivatives, process of preparation and compositions containing the same” (Sanofi, priority 1986, dated 1992)
Where a name gives a salt, the structure may show the parent alone.

Key:
[1] = tested on: isoprenaline-induced acceleration in heart rate (anti-β effect); test: Antiadrenergic properties: anti-β effect (reduction of isoprenaline-induced tachycardia); format: in vivo; set-up: key to anti-β effect: +: for a reduction < 50%; ++: for a reduction ≥ 50%; +++: for a reduction sub-total (almost complete reduction); conditions: dog
Procedure: The object of this test is to determine the capacity of the compounds of the invention for reducing the increase in epinephrine-induced increase in blood-pressure (anti-α effect) and the isoprenaline-induced acceleration in heart rate (anti-β effect), in dogs previously anaesthatized with pentobarbital and atropinized. For each dog, the dose of epinephrine (between 3 and 10 μg/kg) which induced a reproducible increase in the blood-pressure of approximately 133×10^2 Pa and the dose of isoprenaline (1 to 2 μg/kg) which induced a reproducible increase in the heart rate of approximately 70 beats/min. were first determined. The dose of epinephrine and of isoprenaline, determined in this manner, were injected alternately every ten minutes and, after two successive reference responses had been obtained, an amount of the test compound was administered intravenously. The percentage reduction in the acceleration of the heart rate induced by the test compound compared with the reference tachycardia measured previously (approximately 70 beats) was recorded. In both cases, the results of the reduction in blood-pressure or in the heart rate have been expressed as follows: […]

[2] = tested on: isolated rat aorta; test: Calcium inhibitory properties: contractile response to potassium-induced depolarization on isolated rat aorta; set-up: species or system isolated organ, male Wistar rats; conditions: for activity at 1 µM / activity at 0.1 µM / activity at 0.01 µM / activity at 0.001 µM: Rattus norvegicus, 1 h, read-out: % of the maximum contractional effect; for activity at 1 µM: 10^-6 M; for activity at 0.1 µM: 10^-7 M; for % of the maximum contractional effect: 60 min
Description: It is well established that the depolarization of a smooth muscle membrane by potassium renders the latter permeable to extracellular calcium and induces muscle contraction. Consequently, the measurement of the inhibition of the contractile response to depolarization by potassium, or the measurement of a relaxation of the tonic contraction on potassium depolarization, can represent an evaluation of the power of a compound as an inhibitor of the membrane permeability to Ca^++ ions. The technique used was as follows: The aorta was removed from male Wistar rats weighing approximately 300 g, and cut into strips approximately 40 mm long and 3 mm wide. These fragments were placed in a 25-ml isolated organ trough containing a modified Krebs-bicarbonate solution (112 mM NaCl; 5 mM KCl; 25 mM NaHCO3; 1 mM KH2 PO4; 1.2 mM MgSO4; 2.5 mM CaCl2; 11.5 mM glucose, distilled water to 1000 ml) through which a stream of 5-7% carbon dioxide in oxygen was passed, and maintained at 37° C. The preparation was connected to a force microsensor and the contractile response recorded after amplification on a recorder. A tension of 2 g was applied to the preparation. This tension was maintained for 60 minutes in the modified Krebs-bicarbonate solution, and contractions were then induced by replacing the Krebs-bicarbonate solution by a potassium-Krebs solution (17 mM NaCl; 100 mM KCl; 25 mM NaHCO3; 1 mM KH2 PO4; 1.2 mM MgSO4; 2.5 mM CaCl2; 11.5 mM glucose; distilled water to 1000 ml). When the contractile response of the preparation had become reproducible, a given amount of a compound of the invention was introduced into the bath. Sixty minutes later, a new spasm was induced by potassium depolarization. The results obtained on the aorta used in the experiment were then expressed as a percentage of the maximum contractional effect before incubation with the test substance. By way of examples, the results which follow were obtained, the compounds of formula (1) being in the form of the base, hydrochloride or oxalate.

[3] = tested on: epinephrine-induced increase in blood-pressure (anti-α effect); test: Antiadrenergic properties: anti-α effect (reduction of epinephrine-induced hypertension); format: in vivo; set-up: key to anti-α effect: +: for a reduction < 50%; ++: for a reduction ≥ 50%; +++: for a reduction sub-total (almost complete reduction); conditions: 0.1 mg/kg i.v., dog
Procedure: The object of this test is to determine the capacity of the compounds of the invention for reducing the increase in epinephrine-induced increase in blood-pressure (anti-α effect) and the isoprenaline-induced acceleration in heart rate (anti-β effect), in dogs previously anaesthatized with pentobarbital and atropinized. For each dog, the dose of epinephrine (between 3 and 10 μg/kg) which induced a reproducible increase in the blood-pressure of approximately 133×10^2 Pa and the dose of isoprenaline (1 to 2 μg/kg) which induced a reproducible increase in the heart rate of approximately 70 beats/min. were first determined. The dose of epinephrine and of isoprenaline, determined in this manner, were injected alternately every ten minutes and, after two successive reference responses had been obtained, an amount of the test compound was administered intravenously. The percentage reduction in the hypertension induced by the test compound compared with the reference hypertension previously obtained (approximately 100 mm Hg) was recorded. In both cases, the results of the reduction in blood-pressure or in the heart rate have been expressed as follows: […]

[4] = head printed "10^-" (exponent missing; first of three columns before 10^-6 M)

Row | Structure (SMILES) | activity at 1 µM [2] [%] | activity at 0.1 µM [2] [%] | activity at 0.01 µM ([2]; 10^-8 M) [%] | other results
1 | CCCCN(CCCC)CCCOc1ccc(C(=O)c2c(CC)cn3ccccc23)cc1 [Compound F, reference compound] | – | – | – | inhibition in vivo at 10 mg/kg ([1]; Canis lupus familiaris, iv, 10 mg/kg i.v., known compounds): 0%
2 | COc1ccc(CCN(C)CCCOc2ccc(S(=O)(=O)c3c(C(C)C)n(C)c4ccccc34)cc2)cc1OC [Ex. 109, 1-methyl-2-isopropyl-3-[4-{3-[N-methyl-N-(3,4-dimethoxy-β-phenethyl)amino]propyloxy}benzenesulphonyl]indole] | 0 | 5.1 | 34.5 | activity at 0.001 µM ([2]; 10^-9 M): 71.4%
3 | COc1ccc(CCN(C)CCCOc2ccc(S(=O)(=O)c3c(C(C)C)c4ccccc4n3C)cc2)cc1OC [Ex. 113, 1-methyl-3-isopropyl-2-[4-{3-[N-methyl-N-(3,4-dimethoxy-β-phenethyl)amino]propyloxy}benzenesulphonyl]indole acid oxalate] | – | – | 41.1 | –
4 | COc1ccc(CCN(C)CC(O)COc2ccc(S(=O)(=O)c3c(C(C)C)cn4ccccc34)cc2)cc1OC (racemic) [Ex. 50, hydrochloride] | – | – | – | anti-β effect ([1]; 0.1 mg/kg i.v.): +++; anti-α effect [3]: +++
5 | COc1cc(CCN(C)CCCOc2ccc(S(=O)(=O)c3c(C(C)C)cn4ccccc34)cc2)cc(C)c1OC.O=C(O)C(=O)O [Ex. 135, 2-isopropyl-1-[4-{3-[N-methyl-N-(3,4-dimethoxy-5-methyl-β-phenethyl)amino]propyloxy}benzenesulphonyl]indolizine acid oxalate] | – | – | – | % of the maximum contractional effect ([2]; 10^-8 M, 0.01 µM): 21.1%; % of the maximum contractional effect ([2]; 10^-9 M, 0.001 µM): 58.5%; % of the maximum contractional effect ([2]; 10^-10 M, 0.0001 µM): 78.9%
6 | CC(C)c1c(S(=O)(=O)c2ccc(OCCCNC(C)(C)C)cc2)c2ccccc2n1C [Ex. 112, 1-methyl-2-isopropyl-3-[4-{3-(tert-butylamino)propyloxy}benzenesulphonyl]indole] | 8.1 | 51.7 | 84.5 | –
7 | CCCCN(CCCC)CCCOc1ccc(S(=O)(=O)c2c(CC)cc3ccccn23)cc1 [Ex. 123, 2-ethyl-3-{4-[3-(di-n-butylamino)propyloxy]benzenesulphonyl}indolizine acid oxalate] | 5.8 | 16.8 | 54.6 | activity at 0.001 µM ([2]; 10^-9 M): 75.3%
8 | CC(C)c1cn2ccccc2c1S(=O)(=O)c1ccc(OCCCN2CCN(c3ccccc3)CC2)cc1 [Ex. 33, 2-Isopropyl-1-{4-[3-(N-phenylpiperazino)propyloxy]benzenesulphonyl}indolizine] | 24.6 | 57.6 | 87 | –
9 | COc1ccc(CCN(C)CCCOc2ccc(S(=O)(=O)c3nccn3C(C)C)cc2)cc1OC [Ex. 96, 1-isopropyl-2-[4-{3-[N-methyl-N-(3,4-dimethoxy-β-phenethyl)amino]propyloxy}benzenesulphonyl]imidazole dihydrochloride] | 92.4 | 87.3 | – | % of the maximum contractional effect [2, 4]: 65.8%
10 | CCCCCCCCN(CCCCCCCC)CCCOc1ccc(S(=O)(=O)c2c(C(C)C)cn3ccccc23)cc1 [Ex. 36, 2-Isopropyl-1-{4-[3-(di-n-octylamino)propyloxy]-benzenesulphonyl}indolizine] | 83.3 | 93.7 | – | –
11 | CC(C)c1ccccc1S(=O)(=O)c1ccc(OCCCNC(C)(C)C)cc1 [Ex. 118, 2-isopropyl-1-[4-{3-(tert-butylamino)propyloxy}benzenesulphonyl]benzene acid oxalate] | 2.7 | 52.2 | 92.3 | –
12 | CC(C)(C)NCCCOc1ccc(S(=O)(=O)c2c(-c3ccccc3)cn3ccccc23)cc1 [Ex. 24, 2-Phenyl-1-{4-[3-(tert-butylamino)propyloxy]benzenesulphonyl}indolizine hydrochloride] | 62.1 | – | – | –
13 | CCCCN(CCCC)CCCOc1ccc(S(=O)(=O)c2cn[nH]c2C(C)C)cc1 [Ex. 125, 4-{4-[3-(di-n-butylamino)propyloxy]benzenesulphonyl}-5-isopropyl-pyrazole acid oxalate] | 79.3 | 90.4 | – | % of the maximum contractional effect [2, 4]: 38.6%
14 | COc1ccc(CCN(C)CCCOc2ccc(Sc3cc4ccccc4nn3)cc2)cc1OC [Ex. 82, 3-[4-{3-[N-methyl-N-(3,4-dimethoxy-β-phenethyl)amio]propyloxy}phenylthio]cinnoline oxalate] | 55 | 90.2 | – | % of the maximum contractional effect [2, 4]: 6.7%
15 | COc1cc(CCNCCCOc2ccc(S(=O)(=O)c3c(C(C)C)cn4ccccc34)cc2)cc(C)c1OC.O=C(O)C(=O)O [Ex. 139, 2-isopropyl-1-[4-{3-[N-(3,4-dimethoxy-5-methyl-β-phenethyl)amino]propyloxy}benzenesulphonyl]-indolizine acid oxalate] | – | – | – | % of the maximum contractional effect ([2]; 10^-8 M, 0.01 µM): 49%; % of the maximum contractional effect ([2]; 10^-9 M, 0.001 µM): 89%
16 | CC(C)c1cn2ccccc2c1S(=O)(=O)c1ccc(OCCCNCCc2ccccn2)cc1 [Ex. 34, 2-Isopropyl-1-{4-[3-(2-pyridylethylamino)propyloxy]benzenesulphonyl}indolizine dioxalate] | 3.3 | 28.1 | 82.6 | –
17 | CC(C)c1cn2ccccc2c1S(=O)(=O)c1ccc(OCCCN2CCC(c3ccccc3)CC2)cc1 [Ex. 35, 2-Isopropyl-1-{4-[3-(4-phenylpiperidino)propyloxy]-benzenesulphonyl}indolizine] | 8.3 | 25 | 65.6 | –
18 | COc1ccc(CCN(C)CCOc2ccc(S(=O)(=O)c3c(C(C)C)oc4ccccc34)cc2)cc1OC [Ex. 91, 2-Isopropyl-3-[4-{2-[N-methyl-N-(3,4-dimethoxy-β-phenethyl)amino]ethyloxy}benzenesulphonylbenzofuran hemioxalate] | – | 11.1 | 53.9 | –
19 | CCCCN(CCCC)CCCOc1c(C)cc(S(=O)(=O)c2c(CC)cn3ccccc23)cc1C.Cl [Ex. 10, 2-Ethyl-1-{4-[3-(di-n-butylamino)propyloxy]-3,5-dimethylbenzenesulphonyl}indolizine hydrochloride] | 2.9 | 49 | 82.6 | Activity ratio ([2]; compound / Compound D): 2.2
20 | CCCCN(CCCC)CCOc1ccc(S(=O)(=O)c2c(CC)cn3ccccc23)cc1 [Ex. 22, 2-Ethyl-1-{4-[2-(di-n-butylamino)ethyloxy]benzenesulphonyl}indolizine hydrochloride] | – | 37 | 90.2 | –
21 | COc1ccc(NCCCOc2ccc(S(=O)(=O)c3c(C(C)C)cn4ccccc34)cc2)cc1OC [Ex. 44, 2-Isopropyl-1-{4-[3-(3,4-dimethoxyanilino)propyloxy]benzenesulphonyl}indolizine hydrochloride] | 29.8 | 78.9 | 89.5 | –
